Measured values as given in the supplement of paper PMC4862054.

Legend:
Experiment in all cases: normalised viability (% of control), CellTiter-Blue; higher = more viable cells (about 100 = DMSO control)
Settings in all cases: incubation time: 72 h
CAL-85-1 = system: CAL-85-1
Protocol: (§1)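 DSRT, CellTiter-Blue viability, 72 h incubation. Signal is normalised to DMSO and benzethonium chloride controls. Value is the normalised response at dose 6.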

CAL-148 = system: CAL-148
Protocol: as §1

HDQ-P1 = system: HDQ-P1
Protocol: as §1

CAL-51 = system: CAL-51
Protocol: as §1

MDA-MB-453 = system: MDA-MB-453
Protocol: as §1

DU-4475 = system: DU-4475
Protocol: as §1

| SMILES | normalised viability (CAL-85-1) [%] | normalised viability (CAL-148) [%] | normalised viability (HDQ-P1) [%] | normalised viability (CAL-51) [%] | normalised viability (MDA-MB-453) [%] | normalised viability (DU-4475) [%] |
| --- | --- | --- | --- | --- | --- | --- |
| CN1CC[C@H](c2c(O)cc(O)c3c(=O)cc(-c4ccccc4Cl)oc23)[C@H](O)C1 [Alvocidib] (300 nM) | 17.3 | 17.5 | 24.5 | 31.6 | 32.7 | 1.07 |
| Nc1nc(Cl)nc2c1ncn2[C@H]1C[C@H](O)[C@@H](CO)O1 [Cladribine] (30 nM) | 102 | 108 | 90.2 | 109 | 107 | 101 |
| Nc1ccn([C@@H]2O[C@H](CO)[C@@H](O)[C@@H]2O)c(=O)n1 [Cytarabine] (300 nM) | 89.2 | 42.2 | 75.1 | 51.2 | 87.5 | 72.6 |
| Cc1c2oc3c(C)ccc(C(=O)N[C@@H]4C(=O)N[C@H](C(C)C)C(=O)N5CCC[C@H]5C(=O)N(C)CC(=O)N(C)[C@@H](C(C)C)C(=O)O[C@@H]4C)c3nc-2c(C(=O)N[C@@H]2C(=O)N[C@H](C(C)C)C(=O)N3CCC[C@H]3C(=O)N(C)CC(=O)N(C)[C@@H](C(C)C)C(=O)O[C@@H]2C)c(N)c1=O [Dactinomycin] (30 nM) | 4.36 | 1.36 | 16.6 | 4.91 | 7.48 | 0 |
| COc1cccc2c1C(=O)c1c(O)c3c(c(O)c1C2=O)C[C@@](O)(C(=O)CO)C[C@@H]3O[C@H]1C[C@H](N)[C@H](O)[C@H](C)O1 [Doxorubicin] (30 nM) | 92.2 | 58.7 | 75.2 | 87.1 | 100 | 55 |
| Cc1ccc(F)c(NC(=O)Nc2ccc(-c3cccc4[nH]nc(N)c34)cc2)c1 [Linifanib] (30 nM) | 118 | 94.1 | 96.2 | 107 | 96.4 | 116 |
